{"source": "patent US5830500A", "about": "“Low dose fluoxetine tablet” (Pentech Pharmaceuticals, Inc., priority 1996, dated 1998)", "origin": "cited, not measured here", "system": "premature ejaculation", "settings": "reported"}
{"smiles": "CN(C)CCCN1c2ccccc2CCc2ccc(Cl)cc21", "note": "[clomipramine]", "values": [{"measurement": "side effects", "value": "weight gain, sedation, and anticholinergic effects"}, {"measurement": "success in managing premature ejaculation", "setting": "informal use by a few practitioners", "value": "Some limited success"}]}
